Measured values published in patent publication US4410516A, “1-N(αHydroxy-ω-aminoalkanoyl) derivatives of 5,3',4'-trideoxy- or 5,3', 4'-trideoxy-6'-N- methyl- or 5, 3', 4',6"-tetradeoxykannamyci B and production thereof” (Zaidan Hojin Biseibutsu Kagaku Kenkyu Kai, priority 1981, dated 1983).
≈ marks a conversion by molar mass, not a printed value.

Experiments:
Assay type in all cases: cell-based
[1] = test system: Pseudomonas aeruginosa B-13; assay: Minimum inhibitory concentration, serial dilution on nutrient agar; settings: B13, 37° C., 18 hours incubation
[2] = test system: Escherichia coli K-12 ML 1410 R81; assay: as above; settings: 18 h
Proteus vulgaris OX19 = assay: as above; settings: 37° C., 18 hours incubation
Escherichia coli K-12 R5 = assay: as above; settings: K12R5, 18 h
[3] = test system: Pseudomonas aeruginosa ROS134/PU21; assay: as above; settings: ROS134/PU21, 18 h
Escherichia coli NIHJ = assay: as above; settings: nutrient agar, 37° C., 18 hours incubation, read-out: MIC
[4] = test system: Pseudomonas aeruginosa PST1; assay: as above; settings: PST1, nutrient agar, 37° C., 18 hours incubation, read-out: MIC
[5] = test system: Pseudomonas aeruginosa 21-75; assay: as above; settings: 2175, 37° C., 18 hours incubation
[6] = test system: Escherichia coli K-12 ML 1410; assay: as above; settings: K12ML1410, nutrient agar, 37° C., 18 hours incubation, read-out: MIC
[7] = test system: Staphylococcus aureus AP01; assay: as above; settings: 37° C., 18 hours incubation
[8] = test system: Escherichia coli K-12 LA 290 R56; assay: as above; settings: K12LA290R56, 18 h
bacteria = assay: Antibacterial activity (stated in words)
Providencia 2991 = assay: Minimum inhibitory concentration, serial dilution on nutrient agar; settings: 37° C., 18 hours incubation
Proteus rettgeri GN311 = assay: as above; settings: Providencia rettgeri, 37° C., 18 hours incubation
[9] = test system: Staphylococcus aureus 209P; assay: as above; settings: 37° C., 18 hours incubation
[10] = test system: Pseudomonas aeruginosa TI-13; assay: as above; settings: TI13, nutrient agar, 37° C., 18 hours incubation, read-out: MIC
Serratia marcescens = assay: as above; settings: 37° C., 18 hours incubation
[11] = test system: Bacillus subtilis NRRL B-558; assay: as above; settings: NRRLB558, 37° C., 18 hours incubation
Escherichia coli K-12 = assay: as above; settings: K12, nutrient agar, 37° C., 18 hours incubation, read-out: MIC
[12] = test system: Pseudomonas aeruginosa GN315; assay: as above; settings: GN315, nutrient agar, 37° C., 18 hours incubation, read-out: MIC
[13] = test system: Escherichia coli K-12 R 388; assay: as above; settings: K12R388, 18 h
[14] = test system: Escherichia coli JR66/W677; assay: as above; settings: JR66/W677, nutrient agar, 37° C., 18 hours incubation, read-out: MIC
[15] = test system: Pseudomonas aeruginosa 99; assay: as above; settings: Pseudomonas aeruginosa, 99; nutrient agar, 37° C., 18 hours incubation; read-out: MIC
[16] = test system: Escherichia coli K-12 LA 290 R55; assay: as above; settings: K12LA290R55, 18 h
Serratia SOU = assay: as above; settings: 37° C., 18 hours incubation
[17] = test system: Pseudomonas maltophilia GN907; assay: as above; settings: Stenotrophomonas maltophilia, 37° C., 18 hours incubation
[18] = test system: Pseudomonas aeruginosa A3; assay: as above; settings: 37° C., 18 hours incubation

In the case of `CNC[C@@H]1CC[C@@H](N)[C@@H](O[C@H]2C[C@@H](O[C@H]3O[C@H](CO)[C@@H](O)[C@H](N)[C@H]3O)[C@H](N)C[C@@H]2N)O1` [TrideoxyMKMB, 5,3',4'-trideoxy-6'-N-methylkanamycin B], the MIC [1] is reported as 100 µg/mL (≈ 222 µM), the MIC [2] is reported as 25 µg/mL (≈ 55.6 µM) and the MIC (Proteus vulgaris OX19) is reported as 3.13 µg/mL (≈ 6.96 µM). For the same compound, the MIC (Escherichia coli K-12 R5) was 50 µg/mL (≈ 111 µM), the MIC [3] was greater than 100 µg/mL and the MIC (Escherichia coli NIHJ) was 12.5 µg/mL (≈ 27.8 µM). It also gave an MIC [4] greater than 100 µg/mL, an MIC [5] greater than 100 µg/mL and an MIC [6] of 25 µg/mL (≈ 55.6 µM). For the same compound, the MIC [7] was 25 µg/mL (≈ 55.6 µM), the MIC [8] was 25 µg/mL (≈ 55.6 µM) and the antibacterial activity (bacteria) was “antibacterial activity higher than that of the 5,3',4'-trideoxykanamycin B especially against some resistant strains”. It also gave an MIC (Providencia 2991) greater than 100 µg/mL, an MIC (Proteus rettgeri GN311) of 100 µg/mL (≈ 222 µM) and an MIC [9] of 1.56 µg/mL (≈ 3.47 µM). The MIC [10] was 12.5 µg/mL (≈ 27.8 µM), the MIC (Serratia marcescens) was 100 µg/mL (≈ 222 µM) and the MIC [11] was 0.78 µg/mL (≈ 1.74 µM). For the same compound, the MIC (Escherichia coli K-12) was 12.5 µg/mL (≈ 27.8 µM), the MIC [12] was 25 µg/mL (≈ 55.6 µM) and the MIC [13] was 12.5 µg/mL (≈ 27.8 µM). For the same compound, the MIC [14] was 100 µg/mL (≈ 222 µM), the MIC [15] was 50 µg/mL (≈ 111 µM) and the MIC [16] was 100 µg/mL (≈ 222 µM). The MIC (Serratia SOU) was greater than 100 µg/mL, the MIC [17] was greater than 100 µg/mL and the MIC [18] was 3.13 µg/mL (≈ 6.96 µM).
